Test results reported in US9723817B2 (priority 2011, dated 2017).

Legend:
[1] = tested on: ivermectin resistance mutant C. elegans avr-14(ad1302); avr-15(ad1051); glc-1(pk54); assay: EPG recording of pharyngeal pumping in microfluidic EPG array, ivermectin-resistant mutant worms; assay type: in vivo, Caenorhabditis elegans; settings: 10 μM ivermectin in M9-5HT buffer, ivermectin-resistant mutant (FIG. 5)
Procedure: (§1) C. elegans strains were grown on Nematode Growth Medium (NGM) agar plates seeded with the OP50 strain of E. coli. All strains were obtained from the Caenorhabditis Genetics Center (CGC; Minneapolis, Minn.). Wild-type worms were Bristol N2 and Ivermectin (IVM) resistant mutants were DA1316 avr-14(ad1302); avr-15(ad1051); glc-1(pk54). Worms were age synchronized by allowing gravid adults to lay eggs on seeded NGM plates for approximately 6 hr. The adults were then removed and embryos allowed to develop to adulthood at room temperature.
All experiments utilized M9 buffer (recipe available on the World Wide Web at 130.15.90.245/wormlab_recipe_book.htm#Commonlab; containing KH2PO4, NaHPO4, NaCl and MgSO4) to which serotonin (5HT) was added to stimulate pharyngeal pumping (Raizen and Avery, Neuron 1994 March; 12(3):483-95). Stocks of serotonin creatine sulfate monohydrate (Sigma H7752; St. Louis, Mo.) were prepared in M9 buffer at 40 mM and held in small aliquots at −20° C. until use. Each day of an experiment, a fresh aliquot was thawed and diluted to 10 mM 5HT in M9 buffer. This “M9-5HT” buffer was the control medium to which drugs or other compounds were added. […]
(§2) EPGs were recorded by a pair of 4-channel AC differential amplifiers (A-M Systems model 1700, Carlsborg, Wash.) connected to electrodes inserted into the device. […]

wild type N2 C. elegans = assay: EPG recording of pharyngeal pumping in microfluidic EPG array, wild type worms; assay type: in vivo, Caenorhabditis elegans
Procedure: as §1
All experiments utilized M9 buffer (recipe available on the World Wide Web at 130.15.90.245/wormlab_recipe_book.htm#Commonlab; containing KH2PO4, NaHPO4, NaCl and MgSO4) to which serotonin (5HT) was added to stimulate pharyngeal pumping (Raizen and Avery, Neuron 1994 March; 12(3):483-95). Stocks of serotonin creatine sulfate monohydrate (Sigma H7752; St. Louis, Mo.) were prepared in M9 buffer at 40 mM and held in small aliquots at −20° C. until use. Each day of an experiment, a fresh aliquot was thawed and diluted to 10 mM 5HT in M9 buffer. This “M9-5HT” buffer was the control medium to which drugs or other compounds were added. Stock solutions of ivermectin (10 mM; Sigma 8898) were made up in dimethyl sulfoxide (DMSO, Fisher D-136; Fair Lawn, N.J.) and held at −20° C. for no longer than 2 wk. On the day of an experiment, IVM was diluted to the final concentration in M9-5HT buffer containing 0.005% Fast Green (Fisher F-99) as a visual indicator of drug flow within the chip (see below). The dye-containing M9-5HT buffer was filtered (PALL Life Sciences 25 mm Acrodisc syringe filter with 0.2 μm HT Tuffryn Membrane; Port Washington, N.Y.) before drug or DMSO was added.
Young adult worms were transferred from growth plates into a glass well containing M9-5HT buffer and left to acclimate for 10 minutes. […]
as §2

Row | Molecule | block of pharyngeal pumping (EPG) [1] | size and frequency of EPG signal (wild type N2 C. elegans; 10 μM ivermectin in M9-5HT buffer, 10 minutes after treatment, all eight C. elegans (FIG. 4)) | inhibition of pharyngeal pumping (EPG) (wild type N2 C. elegans; 10 mM levamisole in M9-5HT buffer, within 10 minutes (FIG. 6B)) | pharyngeal pumping after washout of drug (EPG) (wild type N2 C. elegans; after 10 mM levamisole, within 60 minutes of wash onset with control buffer (FIG. 6C))
1 | ivermectin | failed to block | significantly reduced or even eliminated | – | –
2 | c1ccc([C@H]2CN3CCSC3=N2)cc1 [levamisole] | – | – | completely inhibited | returned to normal
